Source: patent US20080306019A1, “Dopamine Receptor Agonists in the Treatment and Prevention of Hiv-Induced Dementia” (priority 2005, published 2008)

Legend:
[1] = system: human fetal neurons; conditions: for neuroprotection against synergistic toxicity of HIV proteins plus cocaine (percent neuronal death): pretreatment before Tat1-72 (40 nM) + gp120 (32.5 pM) + cocaine (1.6 μM); for magnitude of cell death vs Locke's buffer control: HIV proteins plus cocaine challenge with steroid pretreatment
Experimental: Culture of Human Brain Cells: Neuronal cultures were prepared as described previously (Magnuson D S, et al. Ann Neurol 1995, 37: 373-380; Nath A, et al. J Virol 1996, 70: 1475-1480; New D, et al. J Neurovirol 1997, 3: 168-173). Human fetal brain specimens of gestational age 12-14 weeks were obtained with the consent of women opting for elective termination of pregnancy. Protocols were carried out with strict adherence to the guidelines of the National Institutes of Health (NIH) and with approval from the University of Kentucky Institutional Review Board. Briefly, after mechanical dissociation, the cells were suspended in Opti-MEM with 5% heat-inactivated fetal bovine serum, 0.2% N2 supplement and 1% antibiotic solution (penicillin G sodium 104 units/ml, streptomycin sulfate 10 μg/ml and amphotericin-B 25 μg/ml) (GIBCO). The cells were maintained in culture flasks at 37° C. in a humidified atmosphere of 5% CO2 and 95% air for at least a month. At least 3 days before the experiment was performed the cells were plated in flat bottom 96 well plates coated with poly-d-lysine. Sample cultures were stained for the neuron-specific enolase, microtubule-associated protein-2, synaptophysin, and glial fibrillary astrocytic protein (GFAP). […] Sample cultures were further characterized for the presence of ER-α and ER-β and dopaminergic neurons.
Neurotoxicity Assay: At the time of the experimental treatment, the culture media was replaced with Locke's buffer containing (in mM) 154 NaCl, 5.6 KCl, 2.3 CaCl2, 1 MgCl2, 3.6 NaHCO3, 5 glucose, 5 N-2-hydroxyethylpiperazine-N′2-ethanesulfonic acid (HEPES) and 1% antibiotic solution (penicillin G sodium 104 units/ml, streptomycin sulfate 10 μg/ml and amphotericin-B 25 μg/ml) (pH 7.2). […] To replicate the stereoisomer specific neuroprotective properties of estrogen, the cultures were treated with either […] (10 nM), or 17α-E2 (10 nM) immediately preceding addition of the HIV proteins plus cocaine. To investigate the neuroprotective properties of other gonadal steroids, the cells were treated with various concentrations of PROG or T, immediately followed by exposure to the HIV proteins plus cocaine. […] Various concentrations of cholesterol were used as treatment prior to incubation with the HIV proteins plus cocaine to further characterize the nature of gonadal steroid neuroprotection. ICI-182,780, DMSO (10 nM), β-cyclodextrin (100 nM) and ethanol (10 nM) were also tested for neurotoxic/protective effects. ICI-182,780 and 17α-E2 were solvated in DMSO. […], T, PROG and cholesterol were β-cyclodextrin encapsulated to provide water solubility. Ethanol was used to solvate DHT. Tat1-72 was produced as indicated above, whereas gp120 was a gift from Chiron Corporation. The ICI-182,780 compound was obtained from Tocris Cookson, Inc. (Ellisville, Mo.). All other chemical agents were supplied by Sigma Chemicals (St. Louis, Mo.). At the end of the incubation period neuronal death was assessed by trypan blue (Sigma) exclusion assay as described previously (Vongher J and Frye C. Pharmacol Biochem Behav 1999, 64: 777-785; Magnuson D S, et al. Ann Neurol 1995, 37: 373-380; Nath A, et al. J Virol 1996, 70: 1475-1480).

[2] = system: Sprague-Dawley rats; assay: Neonatal hippocampal gp120 injections with or without apomorphine: PPI in adult rats; assay type: in vivo, rat
[3] = system: SK-N-SH cells; assay: DCFH fluorescence (oxidative stress) in SK-N-SH cells; assay type: cell-based, human; conditions: for effect of hormone on tat+gp120-induced fluorescence: gp120 (30 pM)+tat (60 nM), hormone 0.1 to 100 nM
Experimental: Cell Culture Assays: SK-N-SH cells (ATCC) were grown in RPMI 1640 with 1% streptomycin/amphotericin and 10% FBS and incubated at 37° C. in the presence of 5% CO2. Cells were subcultured into 96-well plates at a density of 10^4 cell/well and used within 24 hours. Plates were first washed with warmed Krebs buffer (KHB). Stock DCFH in DMSO was diluted in KHB to a final concentration of 100 μM and incubated in each well for 30 minutes. DCFH dye was removed and cells were washed with warmed KHB and the appropriate drug or drug combination was added. Plates were returned to the incubator and drugs were allowed to incubate for 30 minutes. Incubation with the free radical generator SIN-1 (3-morpholinosydnonimine-peroxynitrite and superoxide) was carried out for an additional 30 minutes. The second series of experiments utilized tat (10-250 nM) or gp120 (25-100 pM) in place of the free radical generator.
The concentration of either E2 or progesterone was 0.1 to 100 nM. Plates were returned to the incubator with the hormones and were allowed to incubate for 15 minutes. SIN-1 (50 μM) was chosen as the free radical generator due to the production of peroxynitrite. Previous studies have shown that this concentration of SIN-1 yielded maximum increases in DCFH fluorescence (Wang and Joseph, 1999). In groups that examined the protective effects of E2 and/or progesterone, the hormone was added 15 minutes prior to addition of SIN-1, tat or gp120. Studies that have examined the simultaneous addition of the oxidative stress agent and hormone have yielded attenuated results. Following incubation with SIN-1, tat or gp120 (depending on the assay), fluorescence was determined by using a Bio-Tek plate reader with the settings of 485 n (excitation) and 585 nm (emission) with an integration time of 40 ms. Assays were run four separate times in triplicate. Data are expressed as mean of the separate assays±SEM.

[4] = molecular target: T1, dopamine transporter (Rattus norvegicus, UniProt P23977); assay: [3H] dopamine uptake in rat striatal synaptosomes; assay type: biochemical
T1 construct: followed by differential centrifugation resulting in a crude P2 preparation; from tissue; host or cells: rat striatum (synaptosomes, crude P2 preparation)
Experimental: [^3H] Dopamine uptake in synaptosomes assays: Striatal tissue from 4-5 month old male Sprague-Dawley rats (N=4) was homogenized in 5 mL ice-cold 0.32 M sucrose using a glass/Teflon homogenizer followed by differential centrifugation resulting in a crude P2 preparation. Crude P2 preparations are resuspended to a final volume of 15 mL (0.13-0.15 μg protein/tube) in assay buffer (consisting of 25 mM HEPES, 120 mM NaCl, 5 mM KCl, 2.5 mM CaCl2, 1.2 mM MgSO4, […] ascorbic acid, 1 μM pargyline and 2 mg/mL D-(+) glucose). P2 preparation was then added to assay tubes in 400 μL, followed by 50 μL of buffer or drug. Uptake was initiated by the addition of [7, 8 ^3H] dopamine, 0.02 M acetic acid:ethanol (1:1) solution (Amersham Biosciences, UK). Synaptosomes were preincubated first with 100 nM E2 30 minutes to the initiation of uptake, followed by addition of the appropriate concentrations of gp120 (30 pM) and tat (60 nM), or both proteins, 15 minutes prior to the start of the uptake assay. […] Filters were washed 15 seconds with ice-cold 0.9% NaCl and total [^3H] dopamine uptake was determined by scintillation spectrophotometry. Nonspecific uptake was determined in a parallel set of tubes run in the presence of 1 μM Mazindol, a dopamine uptake inhibitor. Data are expressed as the mean±SEM (N=4).

[5] = system: rat hippocampal neurons; assay: Live/Dead (Calcein/Ethidium) viability of rat hippocampal neuronal cultures
[6] = HIV proteins plus cocaine challenge

T1 sequence (P23977 whole entry): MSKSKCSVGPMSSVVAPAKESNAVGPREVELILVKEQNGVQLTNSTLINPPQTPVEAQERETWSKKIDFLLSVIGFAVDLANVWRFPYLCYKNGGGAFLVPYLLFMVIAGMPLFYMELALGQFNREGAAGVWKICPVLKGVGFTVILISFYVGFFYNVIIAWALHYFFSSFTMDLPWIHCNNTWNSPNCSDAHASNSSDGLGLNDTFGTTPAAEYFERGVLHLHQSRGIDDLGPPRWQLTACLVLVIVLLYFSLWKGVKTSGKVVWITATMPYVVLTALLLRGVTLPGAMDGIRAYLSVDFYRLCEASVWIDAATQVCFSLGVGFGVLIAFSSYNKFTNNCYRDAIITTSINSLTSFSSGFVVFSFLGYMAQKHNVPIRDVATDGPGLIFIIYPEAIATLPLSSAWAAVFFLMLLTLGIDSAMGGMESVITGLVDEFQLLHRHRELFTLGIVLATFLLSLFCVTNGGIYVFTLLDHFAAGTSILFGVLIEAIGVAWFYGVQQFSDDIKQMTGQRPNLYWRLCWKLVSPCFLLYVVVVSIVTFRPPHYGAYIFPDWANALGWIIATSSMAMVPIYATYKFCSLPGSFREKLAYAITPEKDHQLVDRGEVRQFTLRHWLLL

Compound: C[C@]12CC[C@@H]3c4ccc(O)cc4CC[C@H]3[C@@H]1CC[C@H]2O [17α-E2]
- neuroprotection against synergistic toxicity of HIV proteins plus cocaine (percent neuronal death) ([1]; 15 hours): not significantly different from the synergistic toxicity control

Compound: CN1CCc2cccc3c2[C@H]1Cc1ccc(O)c(O)c1-3 [APO, apomorphine]
- peak ASR magnitude in PPI trials: gp120×drug interaction ([2]; 8-120 msec ISIs): significantly altered the gp120 dose response
- peak ASR latency in PPI trials ([2]; rat, in vivo): did not have an impact on latency response
- peak ASR magnitude, adaptation trials: apomorphine ([2]; rat, in vivo): attenuated the baseline of peak magnitude of the ASR

Compound: CC(C)CCC[C@@H](C)[C@H]1CC[C@H]2[C@@H]3CC=C4C[C@@H](O)CC[C@]4(C)[C@H]3CC[C@]12C [Cholesterol]
- concentration dependence of effect on percent neuronal death [1, 6]: concentration-dependent effect of cholesterol with a significant linear decrease in percent neuronal death
- concentration giving maximal / full neuroprotection [1, 6]: 100 nM
- magnitude of cell death vs Locke's buffer control [1]: not significantly different from that observed by Locke's buffer incubation
- neuroprotection against synergistic toxicity of HIV proteins plus cocaine (percent neuronal death) ([1]; 15 hours): Significant neuroprotection

Compound: C[C@]12CCC(=O)C[C@@H]1CC[C@@H]1[C@@H]2CC[C@]2(C)[C@@H](O)CC[C@@H]12 [DHT, 5α-Androstan-17β-ol-3-one; 17β-Hydroxy-5α-androstan-3-one]
- concentration dependence of effect on percent neuronal death [1, 6]: no concentration-dependent effect
- magnitude of cell death vs Locke's buffer control [1]: significantly greater than that observed with Locke's Buffer control
- neuroprotection against synergistic toxicity of HIV proteins plus cocaine (percent neuronal death) ([1]; 15 hours): significant neuroprotection

Compound: C[C@]12CC[C@@H]3c4ccc(O)cc4CC[C@H]3[C@@H]1CC[C@@H]2O [E2, 17β-estradiol]
- SIN-1-induced fluorescence at highest concentration of E2 ([3]; 100 nM E2, 50 μM SIN-1): reduced fluorescence levels to control values
- lowest E2 concentration with significant reduction of SIN-1-induced fluorescence ([3]; 50 μM SIN-1, E2 0.1 to 100 nM): 1 nM
- effect of hormone on tat+gp120-induced fluorescence [3]: concentrations of 1, 10 and 100 nM E2 were each significantly (p<0.001) different from control values
- Vmax with gp120 + tat + E2 ([4]; 100 nM E2 with gp120 and tat, control 231): 220 nmol/mg protein/minute
- effect of E2 on gp120- or tat-induced reduction of [3H] dopamine uptake ([4]; co-incubation with 100 nM E2): reversed this reduction
- neuroprotection against synergistic toxicity of HIV proteins plus cocaine (percent neuronal death) ([1]; 15 hours): precluded by pretreatment with 10 nM dose of 17β-E2

Compound: Fc1ccc(C(OCCN2CCN(CCCc3ccccc3)CC2)c2ccc(F)cc2)cc1 [GBR-12909]
- neurotoxicity of GBR 12909 alone ([5]; doses from 0.05 to 6 μM): not neurotoxic

Compound: C[C@]12CC[C@@H]3c4ccc(O)cc4C[C@@H](CCCCCCCCC[S+]([O-])CCCC(F)(F)C(F)(F)F)[C@H]3[C@@H]1CC[C@@H]2O (stereo partly shown) [ICI-182,780]
- effect of ICI 182,780 on E2 attenuation of tat+gp120-induced fluorescence ([3]; 100 nM E2+1 μM ICI 182,780): Neither progesterone nor E2+ICI 182,780 values differed significantly from control values
- blockade of T (10 nM) neuroprotection ([1]; ICI-182,780 100 nM pretreatment): fully blocked
- neuroprotection against synergistic toxicity of HIV proteins plus cocaine (percent neuronal death) ([1]; 15 hours): nor was it neuroprotective against the toxic challenge
- toxicity alone vs Locke's buffer ([1]; substance alone, 15 hours): not more toxic to the cultures than was Locke's buffer

Compound: CC(=O)[C@H]1CC[C@H]2[C@@H]3CCC4=CC(=O)CC[C@]4(C)[C@H]3CC[C@]12C [PROG, progesterone]
- effect of hormone on tat+gp120-induced fluorescence [3]: had no effect on tat+gp120-induced fluorescence
- concentration dependence of effect on percent neuronal death [1, 6]: no concentration-dependent effect
- magnitude of cell death vs Locke's buffer control [1]: significantly greater than that observed with Locke's Buffer control
- neuroprotection against synergistic toxicity of HIV proteins plus cocaine (percent neuronal death) ([1]; 15 hours): significant neuroprotection

Compound: CN1CCc2cc(Cl)c(O)cc2[C@@H](c2ccccc2)C1 [SCH 23390]
- neuronal cell viability, SCH 23390 alone ([5]; 0.1 to 10 μM): did not cause any changes in neuronal cell viability

Compound: N=c1c[n+](N2CCOCC2)[n-]o1 [SIN-1, 3-morpholinosydnonimine]
- lowest concentration with significant increase in fluorescence ([3]; SIN-1 0-500 μM): 5 µM
